The values below come from patent US20240261294A1, “METHOD FOR TREATING IDH INHIBITOR-RESISTANT SUBJECTS” (Eli Lilly and Company, priority 2021, published 2024).

Structures are written as SMILES. Numbering of substitutions follows the chain as printed. Like-named read-outs stand apart in the source and are kept apart here.

One test addresses T1, IDH2 R140Q_P167R cis (Homo sapiens, UniProt P48735, P167R/R140Q).
T1 construct: expressed in transfected cells; host or cells: U-87 MG
T1 sequence (P48735 40-452 R140Q/P167R): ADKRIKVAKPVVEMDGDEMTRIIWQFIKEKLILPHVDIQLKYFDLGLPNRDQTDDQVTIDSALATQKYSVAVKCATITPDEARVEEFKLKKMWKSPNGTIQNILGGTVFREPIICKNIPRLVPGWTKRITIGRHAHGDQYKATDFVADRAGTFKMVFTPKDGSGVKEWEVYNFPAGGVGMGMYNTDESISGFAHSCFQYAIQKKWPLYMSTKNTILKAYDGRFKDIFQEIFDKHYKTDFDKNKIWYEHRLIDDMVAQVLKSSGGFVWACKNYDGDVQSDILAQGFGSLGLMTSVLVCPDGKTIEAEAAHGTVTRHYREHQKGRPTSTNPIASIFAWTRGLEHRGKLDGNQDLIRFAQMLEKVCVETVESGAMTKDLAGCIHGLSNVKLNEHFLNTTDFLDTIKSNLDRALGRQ
Put plainly: Inhibition of 2-HG production in IDH2 mutant U-87 MG cells. Conditions: read-out: Relative IC50 (nM) Mean, inhibition of 2-HG production. It counts as cell-based.

For another test, the target named is T2, IDH2 R140Q_G260A cis (Homo sapiens, UniProt P48735, G260A/R140Q).
T2 construct: expressed in transfected cells; host or cells: U-87 MG
T2 sequence (P48735 40-452 R140Q/G260A): T1 sequence (P48735 40-452 R140Q/P167R) with R128P, G221A
The test is described as above. The following applies: 16 hours incubation, 50K cells/well, 100 μl media/well, read-out: Relative IC50 (nM) Mean, inhibition of 2-HG production. It counts as cell-based.

The IC50 is the concentration at which inhibition is half-maximal. Regarding `C=CC(=O)N1CCN([C@@H](CC2CC2)c2ccc([C@H](C)Nc3ncc4c(n3)N(CC)C(=O)OC4)cc2)CC1` [Compound A, 7-[[(1S)-1-[4-[(1S)-2-cyclopropyl-1-(4-prop-2-enoylpiperazin-1-yl)ethyl]phenyl]ethyl]amino]-1-ethyl-4H-pyrimido[4,5-d][1,3]oxazin-2-one], the IC50 is 639 nM at IDH2 R140Q_P167R cis (16 hours incubation, 50K cells/well, 100 μl media/well); 104 nM at IDH2 R140Q_P167R cis (72 hours incubation, 12.5K cells/well); 7 nM on IDH2 R140Q_G260A cis.
